Test results taken from US6013660A (priority 1996, dated 2000).
“Also recorded” adds a separate entry of the source. Like-named read-outs stand apart in the source and are kept apart here.

What was measured:
M. tuberculosis Erdman [1] = assay: M. tuberculosis Erdman growth in broth, various concentrations of inhibitor (Examples 5, 12); format: cell-based, Mycobacterium tuberculosis; settings: for inhibitory effect on M. tuberculosis growth (comparison of known GS inhibitors): relative to L-methionine-S-sulfoximine
M. tuberculosis Erdman [2] = assay: Control: effect of SDS on M. tuberculosis Erdman growth in broth culture (FIG. 24); format: cell-based, Mycobacterium tuberculosis; settings: 0.1% SDS
Method: In the presence of 200 μM MS, M. tuberculosis growth was inhibited by almost 1 log by two days and by nearly 2 logs by five days.

THP-1 cells = assay: Growth/toxicity in human monocyte cell line THP-1, Examples 14 and 15; format: cell-based; settings: for effect on growth rate of THP-1 cells: 200 μM MS, FIG. 19
[3] = test system: M. tuberculosis, Erdman strain; settings: 2000 μM MS added at 0, 1, 2, 3, 4 weeks; FIG. 3
M. tuberculosis H37Rv = settings: 0.2-200 μM MS; FIG. 5; similar to Erdman; listed as MS
M. bovis BCG = settings: FIG. 7; listed as MS
[4] = biological target: T1, extracellular glutamine synthetase (Mycobacterium tuberculosis, UniProt P9WN39)
[5] = biological target: cell-associated glutamine synthetase (Mycobacterium tuberculosis, UniProt P9WN39); settings: 20 μM MS; vs untreated; FIG. 22
[6] = biological target: T2, extracellular glutamine synthetase (Mycobacterium avium, UniProt A0ACG7XF78); settings: M. avium vs highly pathogenic strains
M. phlei = settings: 0.2, 2, 20, 200 μM MS; FIG. 9
M. smegmatis 1-2c = settings: 0.2, 2, 20, 200 μM MS; FIG. 10
[7] = test system: L. pneumophila Philadelphia 1; settings: 0.2, 2, 20, 200 μM MS; FIG. 11
E. coli DH5α = settings: 0.2, 2, 20, 200 μM MS; FIG. 12
M. tuberculosis Erdman [8] = settings: 200 μM MS
glutamine synthetase = settings: Manning et al., 1969; cited from earlier work
[9] = biological target: T1, extracellular glutamine synthetase; assay: biochemical; settings: read-out: extracellular GS activity relative to untreated cultures
[10] = biological target: T2, extracellular glutamine synthetase; assay: biochemical; settings: read-out: concentration of MS required to completely inhibit glutamine synthetase activity
M. tuberculosis Erdman [11] = assay: Effect of L-glutamine on M. tuberculosis Erdman broth cultures with or without MS, Example 13; format: cell-based, Mycobacterium tuberculosis; settings: for effect of L-glutamine on M. tuberculosis growth without MS: no MS, FIG. 14; for effect of L-glutamine on M. tuberculosis growth with subinhibitory MS: subinhibitory (minimally inhibitory, FIG. 15) MS
Method: L-glutamine (L-GLN) was added to MS-treated cultures of M. tuberculosis Erdman.

SMILES: CS(=N)(=O)CCC(N)C(=O)O (racemic) [DL-methionine-SR-sulfoximine, reference compound]
- potency in inhibiting growth of M. tuberculosis relative to L-methionine-S-sulfoximine (M. tuberculosis Erdman [1]; FIG. 13 vs FIG. 4): about 1/4
- inhibitory effect on M. tuberculosis growth (comparison of known GS inhibitors) (M. tuberculosis Erdman [1]): significantly weaker inhibitory effect on the growth of M. tuberculosis

SMILES: CCCCCCCCCCCCOS(=O)(=O)[O-].[Na+] [SDS, sodium dodecyl sulfate]
- influence of SDS on growth of M. tuberculosis in broth (M. tuberculosis Erdman [2]): had no influence on growth of M. tuberculosis in broth culture

SMILES: C[S@](=N)(=O)CC[C@H](N)C(=O)O [L-methionine-S-sulfoximine]
- growth inhibition of M. tuberculosis Erdman in broth (M. tuberculosis Erdman [1]; 2 μM MS): strongly inhibited
- growth inhibition of M. tuberculosis Erdman in broth (M. tuberculosis Erdman [1]; 20 μM MS): completely inhibited
- growth inhibition of M. tuberculosis Erdman in broth (M. tuberculosis Erdman [1]; 200 μM MS): completely inhibited
- growth inhibition of M. tuberculosis Erdman in broth, overall (M. tuberculosis Erdman [1]; 0.2, 2, 20, 200 μM, OD540 weekly, FIG. 4, listed as MS): strongly inhibits, in dose-dependent fashion; also recorded: inhibited the growth of M. tuberculosis Erdman in broth culture at all concentrations tested
- minimal effective concentration (M. tuberculosis Erdman [1]; Mycobacterium tuberculosis, broth culture, FIGS. 4 and 5 (Erdman and H37Rv), read-out: MS concentrations as low as ... inhibited M. tuberculosis growth): 0.2 µM
- growth and viability of THP-1 cells (THP-1 cells; 0 or 200 μM MS): grew at the same rate and maintained high viability
- effect on growth rate of THP-1 cells (THP-1 cells): lack of effect
- effect on growth rate of THP-1 cells (THP-1 cells; listed as MS): no influence on the growth rate of these cells
- toxicity against THP-1 cells (THP-1 cells; up to 200 μM MS, listed as MS): no toxicity toward a human monocyte cell line; also recorded: no evidence of toxicity against THP-1 cells; also recorded: no evident toxicity for THP-1 cells up to a concentration of 200 μM
- inhibition of M. tuberculosis growth in broth by time of addition [3]: inhibited the growth of M. tuberculosis in broth cultures when added up to 3 weeks following inoculation
- growth inhibition of M. tuberculosis H37Rv in broth (M. tuberculosis H37Rv): strongly inhibits, in dose-dependent fashion
- growth inhibition of M. bovis BCG in broth (M. bovis BCG): strongly inhibits, in dose-dependent fashion
- preferential inhibition of extracellular over cell-associated GS activity ([4]; 20 μM MS, extracellular vs cell-associated): preferentially inhibits extracellular GS activity
- extracellular GS activity in M. tuberculosis cultures ([4]; 0.2-200 μM MS from week 1, FIG. 20): marked decrease in extracellular GS activity
- increase in extracellular GS activity over 3 weeks (week 1 to week 4) ([4]; 2-200 μM MS): little or no increase in extracellular GS activity
- cell-associated GS activity [5]: only slightly reduced
- concentration required to inhibit GS activity compared with M. tuberculosis and M. bovis [6]: higher than that required to inhibit the glutamine synthetase activity of the highly pathogenic strains of M. tuberculosis and M. bovis
- growth inhibition of M. phlei (M. phlei): lack of effect
- growth inhibition of M. smegmatis (M. smegmatis 1-2c): lack of effect
- growth inhibition of L. pneumophila [7]: lack of effect
- growth inhibition of E. coli (E. coli DH5α): lack of effect
- Colony forming units of M. tuberculosis Erdman from infected THP-1 human monocytes (M. tuberculosis Erdman [8]; Day 0): 8.58 × 10^5 CFU
- Colony forming units of M. tuberculosis Erdman from infected THP-1 human monocytes (M. tuberculosis Erdman [8]; Day 2): 6.22 × 10^5 CFU
- Colony forming units of M. tuberculosis Erdman from infected THP-1 human monocytes (M. tuberculosis Erdman [8]; Day 5a, lysed with sodium dodecyl sulfate): 4.80 × 10^5 CFU
- Colony forming units of M. tuberculosis Erdman from infected THP-1 human monocytes (M. tuberculosis Erdman [8]; Day 5b, lysed by vortexing): 4.32 × 10^5 CFU
- inhibition of intracellular M. tuberculosis growth (M. tuberculosis Erdman [8]; by five days): ~2 logs
- inhibition of intracellular M. tuberculosis growth (M. tuberculosis Erdman [8]; by two days): ~1 log
- inhibition of glutamine synthetase (glutamine synthetase): inhibits glutamine synthetase
- activity at 20 µM [9]: < 25%
- IC100 [10]: 200 µM

SMILES: NC(=O)CC[C@H](N)C(=O)O [L-glutamine]
- effect of L-glutamine on MS inhibition of M. tuberculosis (M. tuberculosis Erdman [11]; inhibitory MS (2, 20, 200 μM), FIGS. 16-18): reverse the inhibitory effect of MS in a dose-dependent fashion; also recorded: reversed the inhibitory effect of MS
- effect of L-glutamine on M. tuberculosis growth without MS (M. tuberculosis Erdman [11]): no or little influence on M. tuberculosis growth; also recorded: lack of effect
- effect of L-glutamine on M. tuberculosis growth without MS (M. tuberculosis Erdman [11]; listed as L-GLN): no effect on the growth
- effect of L-glutamine on M. tuberculosis growth with subinhibitory MS (M. tuberculosis Erdman [11]): no or little influence on M. tuberculosis growth; also recorded: lack of effect
- effect of L-glutamine on M. tuberculosis growth with subinhibitory MS (M. tuberculosis Erdman [11]; listed as L-GLN): no effect on the growth

SMILES: CP(=O)(O)CC[C@H](N)C(=O)O [phosphinothricin, reference compound]
- inhibitory effect on M. tuberculosis growth (comparison of known GS inhibitors) (M. tuberculosis Erdman [1]): only a very minor inhibitory effect on M. tuberculosis growth
